Source: the Deep4Chem optical property database
Several values for one entry are separate records, joined by “and”; a condition that tells them apart may be missing. Equal values may be shown once. One block for each compound: values may come before it.

Test: solvent given as SMILES

Structure (SMILES): CC(=O)O[B-]1(OC(C)=O)OC(/C=C/c2cccc3ccccc23)=CC(/C=C/c2cccc3ccccc23)=[O+]1
- absorption maximum (in C1CCOC1): 464 nm
- absorption maximum (in CC#N): 468 nm
- absorption maximum (in CC(C)=O): 464 nm
- absorption maximum (in CS(C)=O): 478 nm
- absorption maximum (in Cc1ccccc1): 468 nm
- absorption maximum (in ClC(Cl)Cl): 474 nm
- absorption maximum (in ClCCl): 472 nm

Structure (SMILES): c1ccc(C2=C3c4ccccc4C4=[N+]3[B-]3(Oc5ccccc54)Oc4ccccc4-c4c5ccccc5c2n43)cc1 (configuration not stated)
- absorption maximum (in ClCCl): 711 nm

Structure (SMILES): c1cc2c([nH]c3c4[nH]c5sccc5c4c4nsnc4c23)s1
- absorption maximum (in C1CCOC1): 420 nm
- absorption maximum (in CCOC(C)=O): 414 nm
- absorption maximum (in CN(C)C=O): 423 nm
- absorption maximum (in Cc1ccccc1): 411 nm
- absorption maximum (in ClCCl): 415 nm

Structure (SMILES): CCC1(CC)c2cc(B(c3c(C)cc(C)cc3C)c3c(C)cc(C)cc3C)ccc2-c2c1c1c(c3c2C(CC)(CC)c2cc(B(c4c(C)cc(C)cc4C)c4c(C)cc(C)cc4C)ccc2-3)C(CC)(CC)c2cc(B(c3c(C)cc(C)cc3C)c3c(C)cc(C)cc3C)ccc2-1
- absorption maximum (in C1CCOC1): 362 nm
- absorption maximum (in CC#N): 359 nm
- absorption maximum (in CC(C)=O): 360 nm
- absorption maximum (in CCCCCC): 362 nm
- absorption maximum (in Cc1ccccc1): 364 nm

Structure (SMILES): Cc1ccc2c(c1)C(=O)c1ccncc1-2
- absorption maximum (in CC#N): 408.95 nm
- absorption maximum (in CCCCCC): 408.95 nm

Structure (SMILES): CCCCCCCCn1c2cc(/C=C/c3ccc(N(c4ccccc4)c4ccccc4)cc3)ccc2c2cc3c(cc21)c1ccc(/C=C/c2ccc(N(c4ccccc4)c4ccccc4)cc2)cc1n3CCCCCCCC
- absorption maximum (in Cc1ccccc1): 416 nm

Structure (SMILES): CCOC(=O)c1sc(-c2ccc(-c3cc(C4CC4)c(C(=O)OCC)s3)s2)cc1C1CC1
- absorption maximum (in ClCCl): 395 nm

Structure (SMILES): F[B-]1(F)n2c(c3cc4ccccc4cc3c2-c2ccccc2)C=C2c3cc4ccccc4cc3C(c3ccccc3)=[N+]21
- absorption maximum (in C1CCOC1): 761 nm
- absorption maximum (in CN(C)C=O): 764 nm
- absorption maximum (in ClCCl): 762 nm
- absorption maximum (in c1ccccc1): 765 nm

Structure (SMILES): Cc1ccc(-c2ccc(/C=C/c3ccc(C#N)cc3)cn2)nc1
- absorption maximum (in CC#N): 343 nm

Structure (SMILES): CC(C)(C)c1ccc2c(c1)c1cc(C(C)(C)C)ccc1n2-c1ccc(C#Cc2ccc3c4ccc(C#Cc5ccc(C=O)cc5)cc4n(-c4ccc(C(F)(F)F)cc4)c3c2)cc1
- absorption maximum (in ClCCl): 377 nm

Structure (SMILES): C=CC1CN2CCC1CC2[C@@H](OCc1ccccc1)c1ccnc2ccc(O)cc12 (some centres not stated)
- absorption maximum (in C1CCOC1): 338 nm
- absorption maximum (in CC#N): 335 nm
- absorption maximum (in CCCC#N): 337 nm
- absorption maximum (in Cc1ccccc1): 335 nm
- absorption maximum (in ClCCl): 334 nm

Structure (SMILES): CC(C)(C)c1ccc2c(c1)c1cc(C(C)(C)C)ccc1n2-c1ccc(N(c2ccc(-c3ccc(-c4ccc(-c5ccc(-c6ccc(N(c7ccc(-n8c9ccc(C(C)(C)C)cc9c9cc(C(C)(C)C)ccc98)cc7)c7ccc(-n8c9ccc(C(C)(C)C)cc9c9cc(C(C)(C)C)ccc98)cc7)cc6)s5)c5nsnc45)s3)cc2)c2ccc(-n3c4ccc(C(C)(C)C)cc4c4cc(C(C)(C)C)ccc43)cc2)cc1
- absorption maximum (in ClCCl): 528 nm

Structure (SMILES): Cc1ccsc1-c1ccc(-c2ccc(-c3sccc3C)s2)s1
- absorption maximum (in CCCCCCCCCCCCCC): 382 nm

Structure (SMILES): F[B-]1(F)n2c(-c3cccs3)cc(-c3cccs3)c2N=C2C(c3cccs3)=CC(c3cccs3)=[N+]21
- absorption maximum (in C1CCOC1): 740 nm
- absorption maximum (in CC#N): 733 nm
- absorption maximum (in CS(C)=O): 752 nm
- absorption maximum (in Cc1ccccc1): 743 nm
- absorption maximum (in ClCCl): 740 nm and 742 nm

Structure (SMILES): CN(C)c1ccc(-c2ccc(-c3cc(-c4ccccc4)c(-c4ccccc4)c(-c4ccccc4)c3-c3ccccc3)cc2)cc1
- absorption maximum (in ClC(Cl)Cl): 323 nm

Structure (SMILES): CCN(CC)c1ccc2cc(/C=C/C3=C4CC/C(=C\c5cc6ccc(N(CC)CC)cc6oc5=O)C4=[O+][B-](F)(F)O3)c(=O)oc2c1
- absorption maximum (in C1COCCO1): 629 nm
- absorption maximum (in CC#N): 655 nm
- absorption maximum (in CC(C)=O): 653 nm
- absorption maximum (in CCOC(C)=O): 636 nm
- absorption maximum (in CN(C)C=O): 673 nm
- absorption maximum (in CS(C)=O): 690 nm
- absorption maximum (in Cc1ccccc1): 629 nm
- absorption maximum (in ClC(Cl)Cl): 644 nm
- absorption maximum (in ClCCl): 653 nm

Structure (SMILES): c1ccc(N(c2ccccc2)c2ccc(-c3ccc4c(c3)C3(c5ccccc5Oc5ccccc53)c3cc(-c5ccc(N(c6ccccc6)c6ccccc6)cc5)ccc3-4)cc2)cc1
- absorption maximum (in ClCCl): 372 nm

Structure (SMILES): CN(C)c1ccc(C#Cc2ccc3ccc4c(C#Cc5ccc(N(C)C)cc5)ccc5ccc2c3c54)cc1
- absorption maximum (in C1COCCO1): 430 nm
- absorption maximum (in CC(C)=O): 447 nm
- absorption maximum (in CCCCCC): 439 nm
- absorption maximum (in CCCCCCO): 430 nm
- absorption maximum (in CCO): 431 nm
- absorption maximum (in CCOC(C)=O): 431 nm
- absorption maximum (in CO): 436 nm
- absorption maximum (in Cc1ccccc1): 433 nm
- absorption maximum (in ClCCl): 439 nm

Structure (SMILES): O=C(c1ccc(C(=O)c2ccc(N3c4ccccc4Oc4ccccc43)cc2)cc1)c1ccc(N2c3ccccc3Oc3ccccc32)cc1
- absorption maximum (in Cc1ccccc1): 425 nm

Structure (SMILES): BrC1=CN2C[n+]3cc(Br)cc(Br)c3N=C2C(Br)=C1
- absorption maximum (in CS(C)=O): 449 nm

Structure (SMILES): Cc1ccc(-c2nc(-c3cccc(C#N)c3)[nH]c2-c2ccc(C)cc2)cc1
- absorption maximum (in CO): 315 nm

Structure (SMILES): O=Cc1nc2ccc(C#Cc3ccc(N(c4ccc(C#Cc5ccc6nc(C=O)sc6c5)cc4)c4ccc(C#Cc5ccc6nc(C=O)sc6c5)cc4)cc3)cc2s1
- absorption maximum (in Cc1ccccc1): 414 nm

Structure (SMILES): COc1ccc(C2=C3C=c4c(oc5cc6c(cc45)[C@H]4CC[C@]5(C)C(=O)CC[C@H]5[C@@H]4CC6)=[N+]3[B-](F)(F)n3c2cc2c4cc5c(cc4oc23)CC[C@@H]2[C@@H]5CC[C@]3(C)C(=O)CC[C@@H]23)cc1
- absorption maximum (in CCOC(C)=O): 596.5 nm
- absorption maximum (in CCOCC): 596.5 nm
- absorption maximum (in CO): 595.5 nm

Structure (SMILES): CCCCCCCCC1(CCCCCCCC)c2ccccc2-c2ccc(N(c3ccc(-n4c5ccccc5c5ccccc54)cc3)c3ccc4c(c3)C(CCCCCCCC)(CCCCCCCC)c3ccccc3-4)cc21
- absorption maximum (in C1CCOC1): 347 nm
- absorption maximum (in CC#N): 345 nm
- absorption maximum (in CC(C)=O): 345 nm
- absorption maximum (in CCCCCC): 347 nm
- absorption maximum (in CCCCOCCCC): 347 nm
- absorption maximum (in CCN(CC)CC): 347 nm
- absorption maximum (in CCOC(C)=O): 345 nm
- absorption maximum (in CCOCC): 345 nm
- absorption maximum (in CN(C)C=O): 345 nm
- absorption maximum (in Cc1ccccc1): 348 nm
- absorption maximum (in ClCCl): 348 nm

Now from value to compound:

- absorption maximum (in C1CCOC1): 361 nm
- absorption maximum (in CC#N): 368 nm
- absorption maximum (in CCCCCC): 336 nm
- absorption maximum (in CCO): 368 nm
- absorption maximum (in CCOC(C)=O): 361 nm
- absorption maximum (in CS(C)=O): 369 nm
- absorption maximum (in ClCCl): 368 nm
- absorption maximum (in O): 368 nm
Structure (SMILES): CCCCCCCCCCCCOc1cc2cc(N(C)C)ccc2cc1C#N

- absorption maximum (in CCO): 330 nm
Structure (SMILES): O=C(O)CCNc1cccc2ccccc12

- absorption maximum (in ClCCl): 495 nm
Structure (SMILES): CCc1cccc(CC)c1-c1c2ccccc2c(-c2c(CC)cccc2CC)c2cc3ccccc3cc12

- absorption maximum (in CO): 300 nm
Structure (SMILES): Oc1cccc(-c2nc(-c3ccccc3)c(-c3ccccc3)[nH]2)c1

- absorption maximum (in ClCCl): 518 nm
Structure (SMILES): CC1=CC(C)=[N+]2C1=C(c1c(-c3ccccn3)nc3ccccn13)c1c(C)cc(C)n1[B-]2(F)F

- absorption maximum (in CO): 570 nm
Structure (SMILES): CC1=CC(/C=C/c2ccc(OCCCN=[N+]=[N-])cc2)=[N+]2C1=C(c1ccc(N3CCCCC3)cc1)c1c(C)cc(C)n1[B-]2(F)F

- absorption maximum (in C1CCOC1): 428 nm
- absorption maximum (in CC#N): 445 nm
- absorption maximum (in CCO): 433 nm
- absorption maximum (in CS(C)=O): 449 nm
Structure (SMILES): CCOC(=O)c1ccccc1-c1c2ccc(=O)cc-2oc2cc(OC(=O)[C@H](CO[Si](C)(C)C(C)(C)C)NC(=O)OC(C)(C)C)ccc12

- absorption maximum (in ClCCl): 421 nm
Structure (SMILES): Clc1ccccc1N1c2sc3ccccc3c2Sc2c1sc1ccccc21

- absorption maximum (in ClCCl): 330 nm
Structure (SMILES): COc1ccc(C#Cc2ncc(-c3ccccc3)o2)cc1OC

- absorption maximum (in C1CCCCC1): 374 nm
- absorption maximum (in CC#N): 374 nm
- absorption maximum (in CO): 374 nm
- absorption maximum (in ClC(Cl)Cl): 389 nm
Structure (SMILES): CC1(C)CC(NCc2ccc3ccc4cccc5ccc2c3c45)CC(C)(C)N1

- absorption maximum (in CC1CCCCC1): 387 nm
- absorption maximum (in CC#N): 387 nm
Structure (SMILES): C(=C\c1ccnc2ccccc12)/c1c2ccccc2cc2ccccc12

- absorption maximum (in CN(C)C=O): 525 nm
Structure (SMILES): NCCCCCCCCCCCCN1C(=O)c2ccc3c4ccc5c6c(ccc(c7ccc(c2c37)C1=O)c64)C(=O)N(c1ccc(O)cc1)C5=O

- absorption maximum (in CC#N): 355 nm
Structure (SMILES): O=C1O/C(=C\c2cccs2)c2ccccc21

- absorption maximum (in CCCCCC): 551 nm
Structure (SMILES): CC(C)[Si](C#Cc1c2nc3c(nc2c(C#C[Si](C(C)C)(C(C)C)C(C)C)c2nc4ccccc4nc12)C1c2ccccc2C3c2ccccc21)(C(C)C)C(C)C

- absorption maximum (in CC#N): 360 nm
Structure (SMILES): COc1ccc(-c2csc(/C(C#N)=C/c3c(Cl)cccc3Cl)n2)cc1

- absorption maximum (in CO): 784 nm
Structure (SMILES): CC1(C)C(/C=C/C2=C(Cl)C(=C/C=C3/N(Cc4ccccc4)c4ccccc4C3(C)C)/CCC2)=[N+](Cc2ccccc2)c2ccccc21

- absorption maximum (in ClCCl): 431 nm
Structure (SMILES): F[B-]1(F)OC(C#Cc2ccccc2)=C2CCc3ccccc3C2=[O+]1

- absorption maximum (in ClCCl): 391 nm
Structure (SMILES): N#Cc1ccc(C2=Cc3cc4ccccc4cc3P2(=O)c2ccccc2)cc1 (configuration not stated)

- absorption maximum (in ClCCl): 333 nm
Structure (SMILES): CCCCC(CC)COc1cc(OCC(CC)CCCC)c2c#cc3ccc4sc5ccc(c#cc6cc(c#cc7ccc8sc9ccc(c#cc1c2)cc9c8c7)c(C(CCCC)OCCC)cc6C(CCCC)OCCC)cc5c4c3 (configuration not stated)

- absorption maximum (in C1CCOC1): 305 nm
- absorption maximum (in CS(C)=O): 308 nm
- absorption maximum (in ClC(Cl)Cl): 304 nm
- absorption maximum (in ClCCl): 304 nm
Structure (SMILES): COc1ccc(-c2nc(-c3ccccc3O)c(-c3ccccc3O)n2-c2ccc(C)cc2)cc1

- absorption maximum (in ClC(Cl)Cl): 671 nm
Structure (SMILES): CCOC(=O)c1ccc(/C=C/C2=[N+]3C(=C(c4ccccc4)c4ccc(/C=C/c5ccc(C(=O)OCC)o5)n4[B-]3(F)F)C=C2)o1

- absorption maximum (in ClCCl): 465 nm
Structure (SMILES): F[B-]1(F)N(c2ccccc2)c2cccc3ccc4ccc[n+]1c4c23

- absorption maximum (in C1COCCO1): 689 nm
- absorption maximum (in CCO): 673 nm
- absorption maximum (in CN(C)C=O): 681 nm
- absorption maximum (in ClC(Cl)Cl): 685 nm
Structure (SMILES): CCCCCCCN1C(=CC2=C([O-])C(=CC3=[N+](CCCCCCC)c4ccccc4C3(C)C)C2=C(C#N)C#N)C(C)(C)c2ccccc21

- absorption maximum (in O): 650 nm
Structure (SMILES): CC1=CC(C)=[N+]2C1=C(c1ccc(O)cc1)c1c(C)cc(/C=C/C=C3/N(C)c4ccccc4C3(C)C)n1[B-]2(F)F
